Experimental data as given in paper PMC9289467, “A Novel Multifunctional 5,6-Dimethoxy-Indanone-Chalcone-Carbamate Hybrids Alleviates Cognitive Decline in Alzheimer’s Disease by Dual Inhibition of Acetylcholinesterase and Inflammation” (Frontiers in Aging Neuroscience, 2022).

System: ACh
Assay: Brain ACh level, Amplex Red kit, APP/PS1 mice
Type: in vivo, mouse
Conditions: AP5 40 mg/kg intragastric once daily 5 months, vs APP/PS1 mice
Protocol: APP/PS1 mice of ages 6 months were randomly divided into vehicle (APP/PS1, n = 10) and treatment groups (AP5, n = 10), which were intragastrically administered with AP5 (40 mg/kg) once daily for consecutive 5 months. AP5 was dissolved in distilled water containing 1% sodium carboxymethyl cellulose.
The brain samples were weighed, homogenized in PBS solution, and centrifuged for 20 min at 25,000 g at 4°C. Amplex® Red acetylcholinesterase/acetylcholine assay kit (A12217, Thermo Fisher Scientific) was used to detect AChE activity and ACh levels in the supernatant in accordance with the manufacturer’s instructions.
Briefly, for ACh assay, the reactions were started by adding 100 µL of the Amplex Red reagent, HRP, choline oxidase, AChE working solution to each microplate well containing the controls and samples. For AChE assay, detection cocktail solution containing ACh, Amplex Red, choline oxidase and horseradish peroxidase was added toeach well. Assay plates were incubated at room temperature for 30 min and protected from light, followed by detecting fluorescence of resorufin (λex = 544 nm, λem = 590 nm) in a fluorescence microplate reader.
After deparaffinization and antigen retrieval, the sections were incubated with 0.3% hydrogen peroxide (H2O2) to inhibit endogenous peroxidase activity for 20 min and blocked by goat serum for 30 min at37°C. […]

CCN(C)C(=O)Oc1cccc(/C=C2\Cc3cc(OC)c(OC)cc3C2=O)c1 [AP5, (E)-3-((5,6-dimethoxy-1-oxo-1,3-dihydro-2H-inden-2-ylidene)-methyl)phenylethyl(methyl)carbamate]
ACh levels in cortex and hippocampus: elevated levels of ACh
